{"source": "patent US20050032904A1", "about": "“Composition and use of allylamine derivatives” (priority 2003, published 2005)", "key": {"[1]": {"test_system": "COLO 205 tumor xenografts", "assay": "Treatment of COLO 205-derived xenografts in vivo", "parameters": "species or system nude mouse", "details": "TB 50 mg/kg, ND 5 mg/kg, intraperitoneal, 3 times per week for 6 weeks", "experimental": "Genomic DNAs extracted from TB-treated COLO 205 were examined by gel electrophoresis. […] DNA fragmentation was examined at 24 h after drug treatment. In the lanes 2 and 8, cells received mock treatment as controls. […] Comparisons were subjected to ANOVA followed by Fisher's least significant difference test. […] Since, retardation of the cell cycle and/or activation of the cellular apoptotic response are two major mechanisms preventing tumor growth, we examined the TB effect on the cell cycle and apoptosis occurrence of the solid tumor derived from the implanted COLO 205. The COLO-205 cells (5×10^6) in 0.1 ml RPMI 1640 were injected subcutaneously between the scapulae of each nude mouse (purchased from National Science Council animal center, Taipei). […]"}, "COLO 205 cells": {"test_system": "COLO 205 cells", "assay": "DNA fragmentation (DNA ladder) by electrophoresis of genomic DNA", "format": "cell-based, human", "experimental": "Genomic DNAs extracted from TB-treated COLO 205 were examined by gel electrophoresis. […] In FIG. 9, the part of (A) refers to potentiation of ND-induced apoptosis by TB. […] DNA fragmentation was examined at 24 h after drug treatment. In the lanes 2 and 8, cells received mock treatment as controls. The symbols of “M” (in lanes 1 and 7), refer to “DNA size marker.” (B) average tumor volume of DMSO-treated vs. drug-treated nude mice (n=5). (C) tumor weight, (D) animal body weight, and (E) tumor/body weight ratio were measured at the end of experiment. Five samples were analyzed in each group, and values represent the mean±S.E. Comparisons were subjected to ANOVA followed by Fisher's least significant difference test. Significance was accepted at p<0.05. *TB-, ND-, and TB+ND-treated group different from DMSO-treated group. TB+ND-treated group different from TB- or ND-treated group."}, "[2]": {"test_system": "COLO 205 tumor xenografts", "details": "previous research; cited from earlier work"}, "malignant cells": {"test_system": "malignant cells", "details": "through abnormal microtubule polymerization; previous study; cited from earlier work"}, "[3]": {"test_system": "hepatoma and colon cancer cells", "details": "previous studies of the inventors; cited from earlier work"}}}
{"compound": "COC(=O)Nc1nc2ccc(C(=O)c3cccs3)cc2[nH]1", "note": "[ND, nocodazole]", "values": [{"measurement": "tumor volume vs. vehicle (DMSO plus peanut oil)", "setting": "[1]", "result": "reduction in tumor volume"}, {"measurement": "ND concentration at which DNA ladder patterns characteristic of apoptosis are displayed", "setting": "COLO 205 cells; ND alone, 24 h after drug treatment", "result": "≥ 50", "unit": "nM"}, {"measurement": "ND concentration inducing the DNA ladder pattern", "setting": "COLO 205 cells; in the presence of 10 μM TB, 24 h", "result": 1, "unit": "nM"}]}
{"compound": "COC1=CC(=O)C[C@@H](C)[C@]12Oc1c(Cl)c(OC)cc(OC)c1C2=O", "note": "[griseofulvin]", "values": [{"measurement": "effect on anti-cancer activities of nocodazole in vivo", "setting": "[2]", "result": "potentiates the anti-cancer activities of nocodazole"}, {"measurement": "apoptosis and cell cycle arrest", "setting": "malignant cells", "result": "induced apoptosis and cell cycle arrest at the G2/M phase"}]}
{"compound": "CC(=O)N1CCN(c2ccc(OCC3COC(Cn4ccnc4)(c4ccc(Cl)cc4Cl)O3)cc2)CC1", "note": "(stereo not drawn) [ketoconazole]", "values": [{"measurement": "cell cycle arrest and apoptosis", "setting": "[3]", "result": "induced cell cycle arrest at the G0/G1 phase of the cell cycle and the occurrence of apoptosis"}]}
